{"source": "paper PMC3132048", "about": "“Treatment of experimental adjuvant arthritis with a novel folate receptor-targeted folic acid-aminopterin conjugate” (Arthritis Research & Therapy, 2011)", "key": {"[1]": {"test_system": "adjuvant-induced arthritis", "test": "Rat adjuvant-induced arthritis (AIA) model", "type": "in vivo", "experimental": "The rats were then inoculated intradermally (at the base of tail) with 0.5 mg heat-killed M. butyricum (BD Diagnostic Systems) in 100 μl light mineral oil (Sigma-Aldrich, St Louis, MO, USA). […] For each study, two or three rats from the same colony were not induced for arthritis and were used as healthy controls.\nUnless noted otherwise, all drug treatments started on day 10 after arthritis induction and lasted for two consecutive weeks with biweekly (BIW, Mondays and Thursdays) or once-weekly (QW, Mondays) dosing regimens.\nEC0746 was given subcutaneously (s.c.) in a dosing range of 25 to 1,000 nmol/kg (QW or BIW); MTX was given s.c. or orally at 250 nmol/kg (BIW) or 1,650 nmol/kg (QW); and etanercept (10 mg/kg) was given s.c. once every 3 days for a 12-day span. The QW MTX dosing regimen was to mimic MTX administration in humans, and this particular dose of 1,650 nmol/kg per week (that is, 0.75 mg/kg per week) was reportedly active as an intraperitoneal agent in the AIA model. To distinguish the anti-inflammatory mechanisms of EC0746 and MTX in vivo, a therapeutically irrelevant folate-containing competitor (EC0923, molecular weight 672) was used in 500-fold molar excess to block the activities of EC0746 and MTX at 250 nmol/kg (BIW).\nFormalin-fixed hind paws were examined by a board-certified veterinary radiologist who had no knowledge of the study groups. Specific criteria were used to establish a numerical grade of severity for each radiographic change: increased soft tissue volume (0 to 4), narrowing or widening of joint spaces (0 to 5), subchondral erosion (0 to 3), periosteal reaction (0 to 4), osteolysis (0 to 4), subluxation (0 to 3), and degenerative joint changes (0 to 3). Scores are limited to the tarsus, and the maximum possible score per foot was 26 [39]. The histopathological analysis was also performed in a blind fashion by an independent contract laboratory (Bolder BioPATH Inc., Boulder, CO, USA). The arthritic ankles were scored on a scale of 0 to 5 for inflammation, bone resorption, pannus formation, and cartilage damage, with a maximal histology score of 20 per foot."}, "[2]": {"test": "Plasma pharmacokinetics after single subcutaneous dose", "type": "in vivo, rat", "details": "female, Lewis, rat, plasma, sc, after single s.c. dose of unconjugated AMT 500 nmol/kg", "experimental": "Female Lewis rats with jugular vein catheters (Harlan Sprague Dawley) were used to assess the plasma pharmacokinetics of EC0746 and unconjugated AMT. The animals were divided into two main groups, one given a single dose of EC0746 s.c. and the second a single dose of AMT s.c., both at 500 nmol/kg. Whole blood samples (300 μl) were collected from three animals per time point at the following time points: 1 minute, 10 minutes, 30 minutes, 1 hour, 2 hours, 3 hours, 4 hours, and 8 hours after injection. The blood samples were placed into anticoagulant tubes containing 1.7 mg/ml K3EDTA and 0.35 mg/ml N-maleoyl-β-alanine (0.35 mg/ml) in a 0.15% acetic acid solution. Plasma samples were obtained by centrifugation for 3 minutes at ~2,000 × g and stored at -80°C. The amounts of EC0746 and AMT in the plasma and the two primary metabolites of EC0746 (AMT and AMT hydrazide) were determined by liquid chromatography/mass spectrometry/mass spectrometry."}, "[3]": {"target": "T1, FRα (FRα-expressing KB cells) (Homo sapiens, UniProt P15328)", "T1 construct": "both KB cells and CHO-FRβ cells were used as the sources of FR; endogenous in cells; host or cells: KB cells", "T1 sequence (P15328 25-257)": "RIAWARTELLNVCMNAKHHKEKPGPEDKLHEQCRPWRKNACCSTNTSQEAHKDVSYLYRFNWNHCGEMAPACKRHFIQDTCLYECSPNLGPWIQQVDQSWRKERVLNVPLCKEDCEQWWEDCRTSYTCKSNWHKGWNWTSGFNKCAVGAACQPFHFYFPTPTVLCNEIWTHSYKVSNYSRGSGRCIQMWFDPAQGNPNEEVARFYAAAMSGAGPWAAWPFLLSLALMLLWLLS", "test": "Relative affinity assay: displacement of [3H]FA from KB cells", "type": "binding", "details": "37°C, competitor of [3H]FA, inverse molar ratio to displace 50%", "experimental": "(§1) The relative affinities of EC0746, AMT, and MTX were determined according to a previously established method except that both KB cells and CHO-FRβ cells were used as the sources of FR [33]. KB cells are a human cancer cell line known for elevated expression of FRα. CHO-FRβ cells were obtained from Manohar Ratnam, Department of Biochemistry and Cancer Biology, The University of Toledo (Toledo, OH, USA). This cell line was originally generated by stable integration and amplification of a human FRβ cDNA expression construct in CHO-K1 cells."}, "rat TG-macs": {"test_system": "rat TG-macs", "test": "Viability of thioglycollate-elicited peritoneal macrophages", "type": "cell-based", "details": "72-hour incubation; no effect at concentrations as high as stated", "quoted_text": "Female Lewis rats (175 to 200 g) were purchased from Harlan Sprague Dawley (Indianapolis, IN, USA) and were allowed to acclimate for 1 week. To obtain peritoneal macrophages, rats were dosed intraperitoneally with an aged thioglycollate (TG) medium (20 ml/kg) and euthanized 3 days later. The peritoneal cavity of the animals was lavaged with 60 ml ice-cold phosphate-buffered saline to collect peritoneal exudate. The TG-elicited macrophages in the peritoneal fluids were obtained after a red cell lysing step and a 2-hour adherence in folate-free RPMI 1640 medium (Mediatech, Manassas, VA, USA) containing 1% heat-activated fetal calf serum and antibiotics. The purity of the resulting macrophage population (herein referred to as rat TG-macs) was determined to be ~90% pure based on CD11b/c expression (data not shown). […] Unless otherwise specified, all cells were maintained in the folate-free RPMI 1640 medium containing 10% heat-activated fetal calf serum and antibiotics (FFRPMI) under a 5% CO2 atmosphere.\nUnlike RAW264.7 cells, rat TG-macs display little proliferative activity ex vivo and therefore were used in our studies to represent inflammatory macrophages in a low proliferative state. […] LPS (5 μg/ml) and IFNγ (100 ng/ml) were then added to the treated cells 24 hours prior to the end of incubation to stimulate the release of cytokines/chemokines, which were then detected with a rat cytokine antibody array."}, "[4]": {"details": "oral exposure, mice; cited from earlier work"}, "[5]": {"target": "T2, human FRβ (CHO-FRβ cells) (Homo sapiens, UniProt P14207)", "T2 construct": "host or cells: CHO-K1 cells", "T2 sequence (P14207 17-255)": "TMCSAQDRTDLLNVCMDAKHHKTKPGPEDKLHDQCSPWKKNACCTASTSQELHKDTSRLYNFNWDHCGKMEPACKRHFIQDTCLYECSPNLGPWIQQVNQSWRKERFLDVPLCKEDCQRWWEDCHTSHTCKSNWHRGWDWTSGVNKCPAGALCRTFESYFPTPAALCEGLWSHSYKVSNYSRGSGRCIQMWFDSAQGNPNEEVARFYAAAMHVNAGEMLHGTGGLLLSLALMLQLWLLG", "test": "Relative affinity assay: displacement of [3H]FA from CHO-FRβ cells", "type": "binding", "details": "37°C, competitor of [3H]FA, inverse molar ratio to displace 50%", "experimental": "as §1"}, "[6]": {"test_system": "TNFα production in RAW264.7 cells", "test": "LPS-stimulated TNFα production (ELISA)", "type": "cell-based, murine", "details": "RAW264.7 macrophages, data not shown", "experimental": "(§2) RAW264.7 cells in 96-well plates (3.5 × 10^4 cells/well) were treated with 10-fold serial dilutions of EC0746 (≤1 μM) in FFRPMI medium without and with 100-fold molar excess of FA. After a 2-hour exposure, the drug-containing media were replaced and the cells were allowed to incubate further for 70 hours (referred in the text as a 70-hour chase). In comparison, the cells were also treated continuously with AMT for 72 hours. Four hours prior to the end of incubation, LPS was added to the treated cells at a final concentration of 100 ng/ml. Then 100 μl culture supernatants were collected for TNFα analysis by ELISA. The cell viability was assessed by adding XTT to the remaining media for an additional 4 hours following the manufacturer's instructions. To evaluation of a cytostatic effect, RAW264.7 cells seeded at 1 × 10^6 cells/well in six-well plates were subjected to 2-hour exposure and a 70-hour chase with 0, 0.1, 10, and 1000 nM EC0746 without and with excess FA. At the end of the incubation (no LPS added), the surviving cells (that is, still viable cells) were recovered and redistributed in equal numbers in fresh medium for an additional 72 hours. The cell proliferation was again assessed by the XTT assay. All results were expressed as the percentage absorbance (minus background) relative to the untreated control cells."}, "air-pouch inflammation": {"test_system": "air-pouch inflammation", "parameters": "method as in PMID 16170572", "details": "murine air-pouch inflammation; cited from earlier work"}, "arthritis": {"test_system": "arthritis", "parameters": "method as in PMID 16170572", "details": "murine arthritis; cited from earlier work"}, "[7]": {"test": "Preliminary short-term toxicity / MTD in folate-deficient healthy rats", "type": "in vivo, rat", "details": "rat, in vivo, sc; healthy rats on folate-deficient diet, four s.c. doses in 2 weeks; read-out: Maximum tolerated dose (MTD)", "experimental": "The short-term toxicity and MTD of EC0746 and AMT were evaluated in healthy rats following the standard BIW subcutaneous dosing regimen used for efficacy studies. Further, these animals were put on a folate-deficient diet for ~20 days before treatment to match the folate deficiency status of AIA rats used for therapy. The folate-deficient but nonarthritic animals were thus given increasing doses of EC0746 and AMT for two consecutive weeks on a BIW basis. […] Standard hematologic and blood chemistry parameters were examined as needed along with histopathology."}, "RAW264.7 cells": {"test_system": "RAW264.7 cells", "type": "cell-based, murine", "details": "RAW264.7 macrophages, data not shown", "experimental": "as §2"}, "[8]": {"target": "T3, dihydrofolate reductase (DHFR) (Mus musculus, UniProt P00375)", "T3 construct": "endogenous in cells; host or cells: RAW264.7 cells (FR-positive subclone of ATCC TIB71)", "T3 sequence (P00375 1-187)": "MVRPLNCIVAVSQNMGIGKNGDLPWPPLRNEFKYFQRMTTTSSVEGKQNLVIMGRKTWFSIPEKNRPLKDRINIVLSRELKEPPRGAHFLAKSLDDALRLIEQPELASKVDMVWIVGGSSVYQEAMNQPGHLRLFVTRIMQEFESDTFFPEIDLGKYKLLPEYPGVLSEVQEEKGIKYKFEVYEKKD", "test": "Dihydrofolate reductase inhibition assay in RAW264.7 whole cell lysates", "type": "cell-based, murine", "details": "FA alone 10 μM, 2-hour pulse, 22-hour chase", "experimental": "RAW264.7 cells growing in FFRPMI medium in 10 cm cell culture dishes (BD Falcon, Lincoln Park, NJ, USA) were treated with EC0746 (100 nM), EC0746 (100 nM) plus 100-fold molar excess of FA (10 μM), or FA alone (10 μM). After a 2-hour exposure, the drug-containing media were replaced and the cells were allowed to incubate further for 22 hours in fresh FFRPMI medium (referred in the text as a 22-hour chase). Meanwhile, AMT and MTX were kept at 100 nM for the entire 24-hour incubation period. All cells were subsequently lysed in the radioimmunoprecipitation assay lysis buffer, and DHFR activities in the whole cell lysates were determined using a commercial DHFR assay kit (Sigma-Aldrich). This spectrophotometric assay monitors the enzymatic conversion of dihydrofolic acid to tetrahydrofolic acid by DHFR and the disappearance of the co-factor nicotinamide adenine dinucleotide phosphate at 340 nm. The results were normalized to the values of the untreated control cells."}, "[9]": {"details": "s.c., 10 mg/kg on days 10, 13, 16, 19, 22"}, "[10]": {"details": "s.c., 125 μmol/kg biweekly, alone"}}, "note": "Marks after values point to notes of the source that are not given here.", "data": [{"molecule": "Etanercept", "values": [{"measurement": "Splenomegaly (percentage increase in spleen weight relative to healthy rats)", "setting": "[1]; s.c., 10 mg/kg every 3 days", "result": "42 ± 7", "unit": "%"}, {"measurement": "Inhibition in paw edema (%)", "setting": "[1]; s.c., 10 mg/kg every 3 days, calculated based on arthritis scores on day 24", "result": "46 ± 9^f %"}, {"measurement": "Body weight change (%)", "setting": "[1]; s.c., 10 mg/kg every 3 days, day 24 relative to day 10", "result": "-15 ± 2", "unit": "%"}, {"measurement": "Decrease in summed histology score", "setting": "[1]; [9]", "result": 43, "unit": "%"}, {"measurement": "Reduction in bone resorption (histology)", "setting": "[1]; [9]", "result": 55, "unit": "%"}, {"measurement": "Reduction in dorsal to ventral paw thickness", "setting": "[1]; [9]", "result": 40, "unit": "%"}, {"measurement": "Reduction in inflammation (histology)", "setting": "[1]; [9]", "result": 42, "unit": "%"}]}, {"molecule": "Nc1nc(N)c2nc(CNc3ccc(C(=O)N[C@@H](CCC(=O)O)C(=O)O)cc3)cnc2n1", "note": "[AMT, aminopterin]", "values": [{"measurement": "Tmax", "setting": "[2]; 500 nmol/kg, read-out: Time to maximum concentration (converted)", "result": "~30", "unit": "min"}, {"measurement": "AUC", "setting": "[2]; read-out: Area under the curve (converted)", "result": 1.02, "unit": "µM·h"}, {"measurement": "half-life", "setting": "[2]; read-out: Elimination half-life", "result": "~140", "unit": "min"}, {"measurement": "Cmax", "setting": "[2]; read-out: Maximum concentration in plasma", "result": 601, "unit": "nM"}, {"measurement": "Relative affinity value (FA = 1)", "setting": "[3]", "result": 0.004}, {"measurement": "Concentration affecting TG-macs viability", "setting": "rat TG-macs", "result": "> 10", "unit": "µM"}, {"measurement": "Tolerability in AIA rats", "setting": "[1]; unmodified AMT mixed with FA (1:1), 500 nmol/kg s.c. biweekly, after one or two doses, severe anemia and gastrointestinal distress", "result": "all animals treated with the simple mixture had to be euthanized"}, {"measurement": "Acute 50% lethal dose", "setting": "[4]", "result": 3, "unit": "mg/kg"}, {"measurement": "Relative affinity value (FA = 1)", "setting": "[5]", "result": 0.004}, {"measurement": "Potency in inhibition of LPS-stimulated TNFα production, AMT versus AMT hydrazide", "setting": "[6]", "result": "equally potent"}, {"measurement": "Potency relative to MTX", "setting": "air-pouch inflammation", "result": "~ 40 fold"}, {"measurement": "Potency relative to MTX", "setting": "arthritis", "result": "~ 20 fold"}, {"measurement": "MTD at 2 weeks", "setting": "[7]", "result": 0.05, "unit": "µmol/kg"}, {"measurement": "Potency in inhibition of cell proliferation, AMT versus AMT hydrazide", "setting": "RAW264.7 cells", "result": "equally potent"}]}, {"molecule": "Nc1nc2ncc(CNc3ccc(C(=O)N[C@@H](CCC(=O)N[C@H](CC(=O)O)C(=O)N[C@H](CC(=O)O)C(=O)O)C(=O)O)cc3)nc2c(=O)[nH]1", "note": "[EC0923, pteroyl-γGlu-d-Asp-d-Asp, reference compound]", "values": [{"measurement": "Impact on development or severity of arthritis", "setting": "[1]; [10]", "result": "did not have any impact"}, {"measurement": "Radiographic analysis of arthritic paws", "setting": "[1]; [10]", "result": "significant joint erosions"}]}, {"molecule": "Nc1nc(=O)c2nc(CNc3ccc(C(=O)N[C@@H](CCC(=O)O)C(=O)O)cc3)cnc2[nH]1", "note": "[FA, folic acid]", "values": [{"measurement": "Effect on DHFR activity of cells", "setting": "[8]", "result": "benign"}]}]}
